Results on 39 compounds are retold here after patent publication US20180273538A1, “PYRROLO[2,3-d]PYRIMIDINE DERIVATIVES, A PROCESS FOR THEIR PREPARATION AND PHARMACEUTICAL COMPOSITIONS CONTAINING THEM” (LES LABORATOIRES SERVIER, priority 2015, published 2018).

Molecules are shown by their SMILES.

The test deals with T1, His-TEV-DYRK1A Kinase domain (aa127-485) (Homo sapiens, UniProt Q13627).
T1 construct: His-TEV-DYRK1A Kinase domain (aa127-485); His (N); TEV cleavage site (N)
Kind of test: Kinase ADP assay (ADP Hunter Plus). Type of test: biochemical.
Regarding `Cc1cc(-c2c[nH]c3nc(C)nc(OC[C@@H]4CCCNC4)c23)ccn1` [Example 6, 2-methyl-5-(2-methylpyridin-4-yl)-4-[(3R)-piperidin-3-ylmethoxy]-7H-pyrrolo[2,3-d]pyrimidine], the IC50 amounted to 0.07 µM.

Take `Cc1nc(OCC2CC2)c2c(-c3ccncc3)c[nH]c2n1` [Example 7, 4-(cyclopropylmethoxy)-2-methyl-5-(pyridin-4-yl)-7H-pyrrolo[2,3-d]pyrimidine]: the concentration for half-maximal inhibition (IC50) is 0.039 µM.

Regarding `Cc1nc(OCCC2CC2)c2c(-c3ccncc3)c[nH]c2n1` [Example 8, 4-(2-cyclopropylethoxy)-2-methyl-5-(pyridin-4-yl)-7H-pyrrolo[2,3-d]pyrimidine], the IC50 amounted to 0.038 µM.

As for `Cc1nc(OCCc2c[nH]c3ccccc23)c2c(-c3ccncc3)c[nH]c2n1` [Example 9, 4-[2-(1H-indol-3-yl)ethoxy]-2-methyl-5-(pyridin-4-yl)-7H-pyrrolo[2,3-d]pyrimidine], the IC50 was found to be 0.06 µM.

Take `Cc1nc(OCCc2ccccc2)c2c(-c3ccncc3)c[nH]c2n1` [Example 10, 2-methyl-4-(2-phenylethoxy)-5-(pyridin-4-yl)-7H-pyrrolo[2,3-d]pyrimidine]: the IC50 was found to be 0.085 µM.

For the compound `Cc1nc(OCCN2CCCC2)c2c(-c3ccncc3)c[nH]c2n1` [Example 12, 2-methyl-5-(pyridin-4-yl)-4-[2-(pyrrolidin-1-yl)ethoxy]-7H-pyrrolo[2,3-d]pyrimidine], the 50% inhibitory concentration (IC50) was determined as 2.04 µM.

Consider `Cc1nc(OCCN2CCCCC2)c2c(-c3ccncc3)c[nH]c2n1` [Example 13, 2-methyl-4-[2-(piperidin-1-yl)ethoxy]-5-(pyridin-4-yl)-7H-pyrrolo[2,3-d]pyrimidine], for which the IC50 amounted to 1.37 µM.

On to `Cc1nc(OCC2CCCO2)c2c(-c3ccncc3)c[nH]c2n1` (stereo not drawn) [Example 14, 2-methyl-5-(pyridin-4-yl)-4-(tetrahydrofuran-2-ylmethoxy)-7H-pyrrolo[2,3-d]pyrimidine], for which the IC50 was 0.043 µM.

As for `Cc1nc(OCc2cccs2)c2c(-c3ccnc(N)c3)c[nH]c2n1` [Example 19, 4-[2-methyl-4-(thiophen-2-ylmethoxy)-7H-pyrrolo[2,3-d]pyrimidin-5-yl]pyridin-2-amine], the IC50 came out at 0.025 µM.

Take `Cc1nc(OCc2cccnc2)c2c(-c3ccnc(N)c3)c[nH]c2n1` [Example 22, 4-[2-methyl-4-(pyridin-3-ylmethoxy)-7H-pyrrolo[2,3-d]pyrimidin-5-yl]pyridin-2-amine]: the IC50 stood at 0.018 µM.

Consider `Cc1nc(OCc2ccncc2)c2c(-c3ccnc(N)c3)c[nH]c2n1` [Example 23, 4-[2-methyl-4-(pyridin-4-ylmethoxy)-7H-pyrrolo[2,3-d]pyrimidin-5-yl]pyridin-2-amine], for which the IC50 stood at 0.015 µM.

Regarding `Cc1nc(OCc2cc(-c3ccc(F)cc3)on2)c2c(-c3ccnc(N)c3)c[nH]c2n1` [Example 24, 4-(4-{[5-(4-fluorophenyl)-1,2-oxazal-3-yl]methoxy}-2-methyl-7H-pyrrolo[2,3-d]pyrimidin-5-yl)pyridin-2-amine], the IC50 was found to be 0.066 µM.

Turning to `COc1ccc(COc2nc(C)nc3[nH]cc(-c4ccnc(N)c4)c23)cc1` [Example 26, 4-{4-[(4-methoxybenzyl)oxy]-2-methyl-7H-pyrrolo[2,3-d]pyrimidin-5-yl}pyridin-2-amine], the IC50 stood at 0.029 µM.

For the compound `Cc1nc(N(C)C)c2c(-c3ccnc(N)c3)c[nH]c2n1` [Example 29, 5-(2-aminopyridin-4-yl)-N,N,2-trimethyl-7H-pyrrolo[2,3-d]pyrimidin-4-amine], the IC50 turned out to be 0.062 µM.

Consider `Cc1nc(N2CCCC2)c2c(-c3ccnc(N)c3)c[nH]c2n1` [Example 30, 4-[2-methyl-4-(pyrrolidin-1-yl)-7H-pyrrolo[2,3-d]pyrimidin-5-yl]pyridin-2-amine], for which the IC50 amounted to 0.827 µM.

On to `Cc1nc(N2CCC(N(C)C)C2)c2c(-c3ccnc(N)c3)c[nH]c2n1` (stereo not drawn) [Example 31, 4-{4-[3-(dimethylamino)pyrrolidin-1-yl]-2-methyl-7H-pyrrolo[2,3-d]pyrimidin-5-yl}pyridin-2-amine], for which the IC50 stood at 1.07 µM.

Turning to `Cc1nc(N2CCN(C)CC2)c2c(-c3ccnc(N)c3)c[nH]c2n1` [Example 33, 4-[2-methyl-4-(4-methypiperazin-1-yl)-7H-pyrrolo[2,3-d]pyrimidin-5-yl]pyridin-2-amine], the IC50 was determined as 0.165 µM.

Consider `Cc1nc(NCc2cccnc2)c2c(-c3ccnc(N)c3)c[nH]c2n1` [Example 34, 5-(2-aminopyridin-4-yl)-2-methyl-N-(pyridin-3-ylmethyl)-7H-pyrrolo[2,3-d]pyrimidin-4-amine], for which the IC50 was determined as 0.278 µM.

As for `Cc1nc(NCc2ccnn2C)c2c(-c3ccnc(N)c3)c[nH]c2n1` [Example 38, 5-(2-aminopyridin-4-yl)-2-methyl-N-[(1-methyl-1H-pyrazol-5-yl)methyl]-7H-pyrrolo[2,3-d]pyrimidin-4-amine], the IC50 was found to be 0.149 µM.

For the compound `Cc1nc(NCc2nccs2)c2c(-c3ccnc(N)c3)c[nH]c2n1` [Example 39, 5-(2-aminopyridin-4-yl)-2-methyl-N-(1,3-thiazol-2-ylmethyl)-7H-pyrrolo[2,3-d]pyrimidin-4-amine], the IC50 was 0.084 µM.

As to `Cc1nc(NCc2cncs2)c2c(-c3ccnc(N)c3)c[nH]c2n1` [Example 41, 5-(2-aminopyridin-4-yl)-2-methyl-N-(1,3-thiazol-5-ylmethyl)-7H-pyrrolo[2,3-d]pyrimidin-4-amine], the IC50 was 0.158 µM.

With `Cc1nc(NCc2ccccc2)c2c(-c3ccncc3)c[nH]c2n1` [Example 42, N-benzyl-2-methyl-5-(pyridin-4-yl)-7H-pyrrolo[2,3-d]pyrimidin-4-amine], the IC50 worked out at 0.233 µM.

Turning to `Cc1cc(-c2c[nH]c3nc(C)nc(NCc4ccccc4)c23)ccn1` [Example 43, N-benzyl-2-methyl-5-(2-methylpyridin-4-yl)-7H-pyrrolo[2,3-d]pyrimidin-4-amine], the IC50 was 0.278 µM.

As to `Cc1nc(NCc2ccsc2)c2c(-c3ccncc3)c[nH]c2n1` [Example 44, 2-methyl-5-(pyridin-4-yl)-N-(thiophen-3-ylmethyl)-7H-pyrrolo[2,3-d]pyrimidin-4-amine], the IC50 turned out to be 0.249 µM.

For `Cc1nc(NCc2cc(C)on2)c2c(-c3ccncc3)c[nH]c2n1` [Example 46, 2-methyl-N-[(5-methyl-1,2-oxazol-3-yl)methyl]-5-(pyridin-4-yl)-7H-pyrrolo[2,3-d]pyrimidin-4-amine], the IC50 was 0.369 µM.

As for `Cc1cc(-c2c[nH]c3nc(C)nc(NCc4cc(C)on4)c23)ccn1` [Example 47, 2-methyl-N-[(5-methyl-1,2-oxazol-3-yl)methyl]-5-(2-methylpyridin-4-yl)-7H-pyrrolo[2,3-d]pyrimidin-4-amine], the IC50 turned out to be 0.372 µM.

With `Cc1nc(NC(C)c2ccccc2)c2c(-c3ccnc(N)c3)c[nH]c2n1` (stereo not drawn) [Example 49, 5-(2-aminopyridin-4-yl)-2-methyl-N-(1-phenylethyl)-7H-pyrrolo[2,3-d]pyrimidin-4-amine], the IC50 was 0.127 µM.

Regarding `Cc1nc(NCc2cccc(F)c2)c2c(-c3ccnc(N)c3)c[nH]c2n1` [Example 50, 5-(2-aminopyridin-4-yl)-N-(3-fluorobenzyl)-2-methyl-7H-pyrrolo[2,3-d]pyrimidin-4-amine], the IC50 is 0.045 µM.

For the compound `Cc1nc(N[C@@H](C)c2ccccc2)c2c(-c3ccnc(N)c3)c[nH]c2n1` [Example 67, 5-(2-aminopyridin-4-yl)-2-methyl-N-[(1S)-1-phenylethyl]-7H-pyrrolo[2,3-d]pyrimidin-4-amine], the IC50 was determined as 0.094 µM.

For `Cc1nc(N[C@H](C)c2ccccc2)c2c(-c3ccnc(N)c3)c[nH]c2n1` [Example 68, 5-(2-aminopyridin-4-yl)-2-methyl-N-[(1R)-1-phenylethyl]-7H-pyrrolo[2,3-d]pyrimidin-4-amine], the IC50 was determined as 0.059 µM.

As to `Cc1nc(N[C@H]2CCc3ccccc32)c2c(-c3ccnc(N)c3)c[nH]c2n1` [Example 77, 5-(2-aminopyridin-4-yl)-N-[(1S)-2,3-dihydro-1H-inden-1-yl]-2-methyl-7H-pyrrolo[2,3-d]pyrimidin-4-amine], the IC50 worked out at 0.057 µM.

In the case of `Cc1nc(N[C@H](C)c2ccccc2F)c2c(-c3ccnc(N)c3)c[nH]c2n1` [Example 86, 5-(2-aminopyridin-4-yl)-N-[(1R)-1-(2-fluorophenyl)ethyl]-2-methyl-7H-pyrrolo[2,3-d]pyrimidin-4-amine], the IC50 stood at 0.121 µM.

As to `Cc1nc(NCc2ccc(-c3ccccn3)s2)c2c(-c3ccnc(N)c3)c[nH]c2n1` [Example 87, 5-(2-aminopyridin-4-yl)-2-methyl-N-{[5-(pyridin-2-yl)thiophen-2-yl]methyl}-7H-pyrrolo[2,3-d]pyrimidin-4-amine], the IC50 turned out to be 1.94 µM.

Consider `Cc1nc(NCc2cc(-c3ccccc3)no2)c2c(-c3ccnc(N)c3)c[nH]c2n1` [Example 88, 5-(2-aminopyridin-4-yl)-2-methyl N-[(3-phenyl-1,2-oxazol-5-yl)methyl]-7H-pyrrolo[2,3-d]pyrimidin-4-amine], for which the half-maximal inhibitory concentration (IC50) was determined as 2.09 µM.

As for `Cc1nc(N[C@@H]2CCCc3ccccc32)c2c(-c3ccnc(N)c3)c[nH]c2n1` [Example 91, 5-(2-aminopyridin-4-yl)-2-methyl-N-[(1R)-1,2,3,4-tetrahydronaphthalen-1-yl]-7H-pyrrolo[2,3-d]pyrimidin-4-amine], the IC50 turned out to be 0.038 µM.

Take `Cc1nc(NCc2cc(Cl)ccc2Cl)c2c(-c3ccnc(N)c3)c[nH]c2n1` [Example 92, 5-(2-aminopyridin-4-yl)-N-(2,5-dichlorobenzyl)-2-methyl-7H-pyrrolo[2,3-d]pyrimidin-4-amine]: the IC50 was determined as 0.087 µM.

For the compound `Cc1nc(NC2CCCCC2)c2c(-c3ccnc(N)c3)c[nH]c2n1` [Example 93, 5-(2-aminopyridin-4-yl)-N-cyclohexyl-2-methyl-7H-pyrrolo[2,3-d]pyrimidin-4-amine], the IC50 was 0.176 µM.

For `Cc1nc(N2CCCC(C)C2)c2c(-c3ccnc(N)c3)c[nH]c2n1` (stereo not drawn) [Example 97, 4-[2-methyl-4-{3-methylpiperidin-1-yl)-7H-pyrrolo[2,3-d]pyrimidin-5-yl]pyridin-2-amine], the IC50 is 0.063 µM.

`Cc1nc(NCCC(F)(F)F)c2c(-c3ccnc(N)c3)c[nH]c2n1` [Example 100, 5-(2-aminopyridin-4-yl)-2-methyl-N-(3,3,3-trifluoropropyl)-7H-pyrrolo[2,3-d]pyrimidin-4-amine]: the IC50 came out at 0.161 µM.
